Experimental data reported in ChEMBL document CHEMBL3885881, “DrugMatrix”.

Species: Rattus norvegicus
Assay: DrugMatrix - Regimen: Daily Repeat
Type: toxicity, organism-based, Sprague-Dawley
Parameters: regimen Daily Repeat, gender Male, age 6-8 weeks
Details: in vivo, po, route oral GAVAGE, vehicle 100 % WATER; for ABSOLUTE BASOPHIL / ABSOLUTE EOSINOPHIL / ABSOLUTE LYMPHOCYTE / ABSOLUTE MONOCYTE / ABSOLUTE SEGMENTED NEUTROPHIL / BASOPHIL / EOSINOPHIL / ERYTHROCYTE COUNT / HEMATOCRIT / HEMOGLOBIN / LEUKOCYTE COUNT / LYMPHOCYTE / MEAN CORPUSCULAR HEMOGLOBIN / MEAN CORPUSCULAR HEMOGLOBIN CONCENTRATION / MEAN CORPUSCULAR VOLUME / MONOCYTE / NEUTROPHIL / NUCLEATED RED BLOOD CELLS / PLATELET COUNT: tissue Blood; for ALANINE AMINOTRANSFERASE / ALBUMIN / ALKALINE PHOSPHATASE / ASPARTATE AMINOTRANSFERASE / BLOOD UREA NITROGEN / CARBON DIOXIDE / CHLORIDE / CHOLESTEROL / CREATINE PHOSPHOKINASE / CREATININE / GLUCOSE / LACTATE DEHYDROGENASE / LIPASE / PHOSPHORUS / POTASSIUM / SODIUM / TOTAL BILIRUBIN / TOTAL PROTEIN / URIC ACID: tissue Plasma
[1] = 0 mg/kg, 72 h, dose level Control, time 3 day
[2] = 0 mg/kg, 120 h, dose level Control, time 5 day
[3] = 2 mg/kg, 72 h, dose level Low, time 3 day

C[C@]12C=CC(=O)C=C1CC[C@@H]1[C@@H]2[C@@H](O)C[C@@]2(C)[C@H]1CC[C@]2(O)C(=O)CO [PREDNISOLONE]
ABSOLUTE BASOPHIL [1]: 0 CELLS/uL
ABSOLUTE EOSINOPHIL [1]: 24 CELLS/uL
ABSOLUTE LYMPHOCYTE [1]: 13105 CELLS/uL
ABSOLUTE MONOCYTE [1]: 76 CELLS/uL
ABSOLUTE SEGMENTED NEUTROPHIL [1]: 2145 CELLS/uL
BASOPHIL [1]: 0%
EOSINOPHIL [1]: 0.17%
ERYTHROCYTE COUNT [1]: 5.81 x10E6/uL
HEMATOCRIT [1]: 35.6%
HEMOGLOBIN [1]: 13.72 G/DL
LEUKOCYTE COUNT [1]: 15.35 x10E3/uL
LYMPHOCYTE [1]: 85.5%
MEAN CORPUSCULAR HEMOGLOBIN [1]: 23.62 pg
MEAN CORPUSCULAR HEMOGLOBIN CONCENTRATION [1]: 38.55 G/DL
MEAN CORPUSCULAR VOLUME [1]: 61.23 fL
MONOCYTE [1]: 0.5%
NEUTROPHIL [1]: 13.83%
NUCLEATED RED BLOOD CELLS [1]: 0 /100WBC
PLATELET COUNT [1]: 1189.83 x10E3/uL
ALANINE AMINOTRANSFERASE [1]: 48.67 u/L
ALBUMIN [1]: 4.27 G/DL
ALKALINE PHOSPHATASE [1]: 335 u/L
ASPARTATE AMINOTRANSFERASE [1]: 86.5 u/L
BLOOD UREA NITROGEN [1]: 14.33 mg/dL
CARBON DIOXIDE [1]: 29.17 mmol/L
CHLORIDE [1]: 99.83 MEQ/L
CHOLESTEROL [1]: 71.83 mg/dL
CREATINE PHOSPHOKINASE [1]: 506.83 u/L
CREATININE [1]: 0.18 mg/dL
GLUCOSE [1]: 162.17 mg/dL
LACTATE DEHYDROGENASE [1]: 264.5 u/L
LIPASE [1]: 9.67 u/L
PHOSPHORUS [1]: 11.92 mg/dL
POTASSIUM [1]: 6.55 MEQ/L
SODIUM [1]: 141.53 MEQ/L
TOTAL BILIRUBIN [1]: 0.18 mg/dL
TOTAL PROTEIN [1]: 5.87 G/DL
URIC ACID [1]: 1.67 mg/dL
ABSOLUTE BASOPHIL [2]: 0 CELLS/uL
ABSOLUTE EOSINOPHIL [2]: 25.33 CELLS/uL
ABSOLUTE LYMPHOCYTE [2]: 15680 CELLS/uL
ABSOLUTE MONOCYTE [2]: 92.33 CELLS/uL
ABSOLUTE SEGMENTED NEUTROPHIL [2]: 2102.33 CELLS/uL
BASOPHIL [2]: 0%
EOSINOPHIL [2]: 0.17%
ERYTHROCYTE COUNT [2]: 6 x10E6/uL
HEMATOCRIT [2]: 35.55%
HEMOGLOBIN [2]: 14.12 G/DL
LEUKOCYTE COUNT [2]: 17.9 x10E3/uL
LYMPHOCYTE [2]: 87.33%
MEAN CORPUSCULAR HEMOGLOBIN [2]: 23.65 pg
MEAN CORPUSCULAR HEMOGLOBIN CONCENTRATION [2]: 39.77 G/DL
MEAN CORPUSCULAR VOLUME [2]: 59.52 fL
MONOCYTE [2]: 0.5%
NEUTROPHIL [2]: 12%
NUCLEATED RED BLOOD CELLS [2]: 0.17 /100WBC
PLATELET COUNT [2]: 1325.67 x10E3/uL
ALANINE AMINOTRANSFERASE [2]: 56.17 u/L
ALBUMIN [2]: 4.23 G/DL
ALKALINE PHOSPHATASE [2]: 371.5 u/L
ASPARTATE AMINOTRANSFERASE [2]: 91 u/L
BLOOD UREA NITROGEN [2]: 15.33 mg/dL
CARBON DIOXIDE [2]: 27.67 mmol/L
CHLORIDE [2]: 99.5 MEQ/L
CHOLESTEROL [2]: 66.5 mg/dL
CREATINE PHOSPHOKINASE [2]: 518.5 u/L
CREATININE [2]: 0.18 mg/dL
GLUCOSE [2]: 143.33 mg/dL
LACTATE DEHYDROGENASE [2]: 238.83 u/L
LIPASE [2]: 9.33 u/L
PHOSPHORUS [2]: 10.68 mg/dL
POTASSIUM [2]: 6.5 MEQ/L
SODIUM [2]: 141.88 MEQ/L
TOTAL BILIRUBIN [2]: 0.18 mg/dL
TOTAL PROTEIN [2]: 6 G/DL
URIC ACID [2]: 1.63 mg/dL
ABSOLUTE BASOPHIL [3]: 0 CELLS/uL
ABSOLUTE EOSINOPHIL [3]: 0 CELLS/uL
ABSOLUTE LYMPHOCYTE [3]: 13282 CELLS/uL
ABSOLUTE MONOCYTE [3]: 183.67 CELLS/uL
ABSOLUTE SEGMENTED NEUTROPHIL [3]: 1434.33 CELLS/uL
BASOPHIL [3]: 0%
EOSINOPHIL [3]: 0%
ERYTHROCYTE COUNT [3]: 5.89 x10E6/uL
HEMATOCRIT [3]: 36.9%
HEMOGLOBIN [3]: 14.23 G/DL
LEUKOCYTE COUNT [3]: 14.9 x10E3/uL
LYMPHOCYTE [3]: 88.67%
MEAN CORPUSCULAR HEMOGLOBIN [3]: 24.17 pg
MEAN CORPUSCULAR HEMOGLOBIN CONCENTRATION [3]: 38.57 G/DL
MEAN CORPUSCULAR VOLUME [3]: 62.63 fL
MONOCYTE [3]: 1%
NEUTROPHIL [3]: 10.33%
NUCLEATED RED BLOOD CELLS [3]: 0 /100WBC
PLATELET COUNT [3]: 1283.33 x10E3/uL
ALANINE AMINOTRANSFERASE [3]: 48.33 u/L
ALBUMIN [3]: 4.37 G/DL
ALKALINE PHOSPHATASE [3]: 335.33 u/L
ASPARTATE AMINOTRANSFERASE [3]: 82.67 u/L
BLOOD UREA NITROGEN [3]: 15.67 mg/dL
CARBON DIOXIDE [3]: 25.33 mmol/L
CHLORIDE [3]: 101.33 MEQ/L
CHOLESTEROL [3]: 64.67 mg/dL
CREATINE PHOSPHOKINASE [3]: 495.33 u/L
CREATININE [3]: 0.15 mg/dL
GLUCOSE [3]: 167.67 mg/dL
LACTATE DEHYDROGENASE [3]: 139 u/L
LIPASE [3]: 9.67 u/L
PHOSPHORUS [3]: 12.63 mg/dL
POTASSIUM [3]: 5.96 MEQ/L
SODIUM [3]: 144.8 MEQ/L
TOTAL BILIRUBIN [3]: 0.17 mg/dL
TOTAL PROTEIN [3]: 6.1 G/DL
URIC ACID [3]: 1.97 mg/dL
